Data from publication PMC10709440, “High-throughput ligand profile characterization in novel cell lines expressing seven heterologous insect olfactory receptors for the detection of volatile plant biomarkers” (Scientific Reports, 2023).
Where two headings read alike, the source gives them in different places.

Tests used:
Drosophila OR47a = biological target: T1, Drosophila OR47a (Drosophila melanogaster, UniProt P81921); assay: Calcium ion fluorescence (GCaMP6) assay, OR47a stable HEK293 cell line; format: cell-based; conditions: for Average response / OR47a response (VUAA1-normalized) at 1 μM / OR47a response (VUAA1-normalized) at 10 μM / OR47a response (VUAA1-normalized) at 100 μM: OR47a cell line; for Average response: mean of biological replicates; for DF norm AVERAGE OR47a: threshold 0.05, below shown as 0
T1 construct: expressed in transfected cells
T1 sequence (P81921 1-385): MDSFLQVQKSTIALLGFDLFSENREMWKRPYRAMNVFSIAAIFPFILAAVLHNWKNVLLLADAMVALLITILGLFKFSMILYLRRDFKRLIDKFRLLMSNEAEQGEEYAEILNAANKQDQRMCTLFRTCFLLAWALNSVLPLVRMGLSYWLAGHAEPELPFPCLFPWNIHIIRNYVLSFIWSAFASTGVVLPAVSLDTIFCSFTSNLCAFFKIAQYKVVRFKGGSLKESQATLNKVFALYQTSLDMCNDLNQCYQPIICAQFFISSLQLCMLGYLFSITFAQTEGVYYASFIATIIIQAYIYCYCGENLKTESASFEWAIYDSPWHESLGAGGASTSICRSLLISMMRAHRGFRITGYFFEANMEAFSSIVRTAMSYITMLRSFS
T1 sequence (Q9VNB5 1-486 partner): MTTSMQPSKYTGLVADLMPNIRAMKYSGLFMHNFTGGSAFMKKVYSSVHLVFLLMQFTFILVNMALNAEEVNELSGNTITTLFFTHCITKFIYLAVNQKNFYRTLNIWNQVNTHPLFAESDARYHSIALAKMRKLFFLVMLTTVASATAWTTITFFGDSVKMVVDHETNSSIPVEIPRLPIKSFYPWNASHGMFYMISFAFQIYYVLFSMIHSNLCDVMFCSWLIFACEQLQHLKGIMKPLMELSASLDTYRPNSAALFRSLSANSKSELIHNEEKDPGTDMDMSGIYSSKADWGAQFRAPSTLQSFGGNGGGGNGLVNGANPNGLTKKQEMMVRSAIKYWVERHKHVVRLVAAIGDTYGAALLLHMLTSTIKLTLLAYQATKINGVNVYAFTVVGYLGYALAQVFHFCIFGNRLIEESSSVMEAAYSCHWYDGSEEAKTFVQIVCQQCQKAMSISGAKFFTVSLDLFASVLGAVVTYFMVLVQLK
Outline: (§1)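 Responses are VUAA1-normalized ΔF: each VOC-evoked calcium signal, (FMAX−F0)/F0 over 30 s after injection, divided by the same line's mean 50 µM VUAA1 response. Cells were doxycycline-induced HEK293 with GCaMP6 and the cognate Drosophila OR, in HEPES buffer pH 7.3; ligands tested 0.01–100 μM.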

Drosophila OR13a = biological target: T2, Drosophila OR13a (Drosophila melanogaster, UniProt Q9VXL0); assay: Calcium ion fluorescence (GCaMP6) assay, OR13a stable HEK293 cell line; format: cell-based; conditions: for DF norm AVERAGE OR13a: threshold 0.05, below shown as 0; for OR13a response (VUAA1-normalized) at 1 μM / OR13a response (VUAA1-normalized) at 10 μM / OR13a response (VUAA1-normalized) at 100 μM: OR13a cell line
T2 construct: expressed in transfected cells
T2 sequence (Q9VXL0 1-418): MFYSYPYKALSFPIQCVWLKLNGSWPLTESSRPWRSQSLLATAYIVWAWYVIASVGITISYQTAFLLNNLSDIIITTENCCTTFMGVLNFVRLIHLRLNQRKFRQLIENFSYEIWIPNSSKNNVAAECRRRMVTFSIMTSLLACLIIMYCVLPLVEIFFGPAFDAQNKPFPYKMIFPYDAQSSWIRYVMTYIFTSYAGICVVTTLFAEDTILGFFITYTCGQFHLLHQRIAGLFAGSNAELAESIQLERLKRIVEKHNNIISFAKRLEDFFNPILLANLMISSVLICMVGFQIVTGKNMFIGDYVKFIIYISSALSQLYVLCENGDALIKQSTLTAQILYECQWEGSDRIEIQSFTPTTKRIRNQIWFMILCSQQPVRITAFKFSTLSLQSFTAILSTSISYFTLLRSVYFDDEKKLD
T2 sequence (Q9VNB5 1-486 partner): T1 sequence (Q9VNB5 1-486 partner)
Outline: as §1

[1] = HEK293, read-out: OR47a response (VUAA1-normalized response)
[2] = ligand concentration 1 (unit not given)
[3] = ligand concentration 10 (unit not given)
[4] = ligand concentration 100 (unit not given)
[5] = HEK293, read-out: OR13a Average response (VUAA1-normalized), 1 μM VOC, 50 μM VUAA1 = 1, responses not exceeding 0.05 considered 0
[6] = HEK293, read-out: OR13a Average response (VUAA1-normalized), 10 μM VOC, 50 μM VUAA1 = 1, responses not exceeding 0.05 considered 0
[7] = HEK293, read-out: OR13a Average response (VUAA1-normalized), 100 μM VOC, 50 μM VUAA1 = 1, responses not exceeding 0.05 considered 0
[8] = HEK293, read-out: OR13a response (VUAA1-normalized response), VOC concentration 1 μM
[9] = HEK293, read-out: OR13a response (VUAA1-normalized response), VOC concentration 10 μM
[10] = HEK293, read-out: OR13a response (VUAA1-normalized response), VOC concentration 100 μM
[11] = HEK293, read-out: OR47a Average response (VUAA1-normalized)

| Structure (SMILES) | activation at 1 µM (Drosophila OR47a; [1]) [%] | activation at 10 µM (Drosophila OR47a; [1]) [%] | activation at 100 µM (Drosophila OR47a; [1]) [%] | Average response (Drosophila OR47a; odorant cc. 1 µM) | Average response (Drosophila OR47a; odorant cc. 10 µM) | Average response (Drosophila OR47a; odorant cc. 100 µM) | DF norm AVERAGE OR47a (Drosophila OR47a; [2]) | DF norm AVERAGE OR47a (Drosophila OR47a; [3]) | DF norm AVERAGE OR47a (Drosophila OR47a; [4]) | activation at 1 µM (Drosophila OR13a; [5]) [%] | activation at 10 µM (Drosophila OR13a; [6]) [%] | activation at 100 µM (Drosophila OR13a; [7]) [%] | activation at 1 µM (Drosophila OR13a; [8]) [%] | activation at 10 µM (Drosophila OR13a; [9]) [%] | activation at 100 µM (Drosophila OR13a; [10]) [%] | DF norm AVERAGE OR13a (Drosophila OR13a; [2]) | DF norm AVERAGE OR13a (Drosophila OR13a; [3]) | DF norm AVERAGE OR13a (Drosophila OR13a; [4]) | OR47a response (VUAA1-normalized) at 1 μM (Drosophila OR47a; VOC concentration 1 μM) | OR47a response (VUAA1-normalized) at 10 μM (Drosophila OR47a; VOC concentration 10 μM) | further results |
| --- | --- | --- | --- | --- | --- | --- | --- | --- | --- | --- | --- | --- | --- | --- | --- | --- | --- | --- | --- | --- | --- |
| CC/C=C\CCO [E-3-hexenol] |  |  |  |  |  |  |  |  |  |  |  |  |  |  |  |  |  |  |  |  | OR47a response (VUAA1-normalized response) (Drosophila OR47a; VOC concentration 1 μM): 0.06; OR47a response (VUAA1-normalized response) (Drosophila OR47a; VOC concentration 10 μM): 0.00; OR47a response (VUAA1-normalized response) (Drosophila OR47a; VOC concentration 100 μM): 0.14; OR13a response (VUAA1-normalized response) (Drosophila OR13a; VOC concentration 1 μM): 0.00; OR13a response (VUAA1-normalized response) (Drosophila OR13a; VOC concentration 10 μM): 0.00; OR13a response (VUAA1-normalized response) (Drosophila OR13a; VOC concentration 100 μM): 0.07 |
| CC1=CC[C@@H](C(C)(C)O)CC1 [alpha-terpineol] | 0 | 0 | 0 | 0.00 | 0.00 | 0.00 | 0 | 0 | 0 | 3.36 | 0 | 0 | 0 | 0 | 0 | 0 | 0 | 0 |  |  |  |
| Cc1ccc(C)cc1 [p-xylene] |  |  |  | 0.00 | 0.00 | 0.0271 | 0 | 0 | 0 | 0 | 0 | 2.5 |  |  |  | 0 | 0 | 0 | 0.00 | 0.00 | OR47a response (VUAA1-normalized) at 100 μM (Drosophila OR47a; VOC concentration 100 μM): 0.00; OR13a response (VUAA1-normalized) at 1 μM (Drosophila OR13a; VOC concentration 1 μM): 0.00; OR13a response (VUAA1-normalized) at 10 μM (Drosophila OR13a; VOC concentration 10 μM): 0.00; OR13a response (VUAA1-normalized) at 100 μM (Drosophila OR13a; VOC concentration 100 μM): 0.00 |
| C=CC(C)(O)CCC=C(C)C (stereo not drawn) [linalool] |  |  |  | 0.00 | 0.0374 | 0.00 | 0 | 0 | 0 | 1.21 | 4.47 | 0 |  |  |  | 0 | 0 | 0 | 0.00 | 0.00 | OR47a response (VUAA1-normalized) at 100 μM (Drosophila OR47a; VOC concentration 100 μM): 0.00; OR13a response (VUAA1-normalized) at 1 μM (Drosophila OR13a; VOC concentration 1 μM): 0.00; OR13a response (VUAA1-normalized) at 10 μM (Drosophila OR13a; VOC concentration 10 μM): 0.00; OR13a response (VUAA1-normalized) at 100 μM (Drosophila OR13a; VOC concentration 100 μM): 0.00 |
| CCOC(=O)c1ccccc1 [ethyl benzoate] | 0 | 0 | 10 | 0.0468 | 0.00 | 0.10 | 0 | 0 | 0.09883 | 1.69 | 2.64 | 1.67 | 0 | 0 | 0 | 0 | 0 | 0 |  |  | activation at 1 µM (Drosophila OR47a; [11]): 5%; activation at 10 µM (Drosophila OR47a; [11]): 0%; activation at 100 µM (Drosophila OR47a; [11]): 10% |
